For series [1], the system named is HT29 cells. Put plainly: Total binding and FITC surface exposure of CAIX bispecific adapters on HT29 cells. In kind it is cell-based. To be noted: 1 μM adapter, 1 hour room temperature; FIG. 3A. How it is done: (§1) HT29 cells or MDA-CAIX cells were incubated with 1 μM bispecific adapters with different ligands to CAIX and different polyethylene glycol (PEG) linkers in complete RPMI medium (RPMI+10% FBS) for one hour at room temperature. Free compounds were washed away, and fluorescent intensity of fluorescein isothiocyanate (FITC) was analyzed by flow cytometry.
(§2) To analyze the surface exposure of the FITC moiety, the stained cells were incubated with allophycocyanin (APC)-anti-FITC antibody on ice for 30 minutes. Then the cells were washed, and the fluorescent intensity of APC was analyzed by flow cytometer.

Series [2] has as its system MDA-CAIX cells. The experiment in a line: Total binding and FITC surface exposure of CAIX bispecific adapters on MDA-CAIX cells. Type of series: cell-based. To be noted: 1 μM adapter, 1 hour room temperature; FIG. 3C. The procedure: as §1, §2
The subject of series [3] is HT29 tumor. Put plainly: In vivo efficacy of CAIX targeting bispecific adapters on HT29 tumor model. Also noted: species or system mouse. To be noted: NSG mice, subcutaneous HT29, 10 million anti-FITC CAR-T cells plus adapter; FIG. 7B. How it is done: (§3) HT29 cells (1.5 million) were implanted into each NOD scid gamma (NSG) mouse by subcutaneous injection. When the tumor volumes reached about 100 mm^3, the treatment groups were injected with 10 million anti-FITC CAR-T cells and bispecific adapters as shown in FIG. 7A. The tumor volume and body weight were monitored regularly. Tumor volume was calculated using the formular: (length*width^2)/2.

Series [4] deals with MDA-CAIX tumor cells. The experiment in a line: Retention and surface exposure of CAIX bispecific adapters in MDA-CAIX tumor cells from treated mice. Type of series: in vivo, mouse. To be noted: for CAIX levels of tumor cells (MFI of FITC after staining with 100 nM meta-CAL-PEG6-FITC in vitro): MDA-CAIX tumors from treated mice, FIG. 11C. How it is done: MDA-CAIX tumors from mice in different treatment groups were dissected and digested into single cells 24 hours after the last injections with CAIX bispecific adapters at 500 nmol/kg. The total retention of the bispecific adapters was determined by the FITC fluorescence intensity analyzed by flow cytometry. To estimate the CAIX protein levels in the tumor cells, the cells were stained with 100 nM meta-CAL-PEG6-FITC for 1 hour at room temperature and analyzed by flow cytometry. The FITC exposure of the bispecific adapters on the tumor cell surface was analyzed by flow cytometry after staining with APC-anti-FITC antibody on ice for 30 minutes. Surface exposure of FITC was also analyzed in the cells stained with 100 nM meta-CAL-PEG6-FITC.

Series [5] deals with MDA-CAIX tumors. The experiment in a line: In vivo efficacy of CAIX targeting bispecific adapters on MDA-CAIX tumor model. The following applies: NSG mice, subcutaneous MDA-CAIX, 10 million anti-FITC CAR T-cells plus adapter; FIG. 10B. Details: species or system mouse. The procedure:
MDA-CAIX cells (5 million) were implanted into each NSG mouse by subcutaneous injection. When the tumor volumes reached about 100 mm^3, the treatment groups were injected with 10 million anti-FITC CAR T-cells and indicated bispecific adapters as shown in FIG. 10A. The tumor volume and body weight were monitored regularly. Tumor volume was calculated using the formular: (length*width^2)/2.

The test system of series [6] is MDA-CAIX cells. Put plainly: Bispecific adapter mediated anti-FITC CAR-T cell cytotoxicity to MDA-CAIX cells. In kind it is cell-based. The procedure: (§4) Anti-FITC CAR-T cells were incubated with an equal number of MDA-CAIX cells in the presence of bispecific adapters at different concentrations. The number of MDA-CAIX cells was determined at the end of the co-culture, and the percentage of cell lysis was calculated using the following formula: [(number of untreated cells−number of treated cells)/number of untreated cells]*100%.
Anti-FITC CAR-T cells were incubated with an equal number of MDA-CAIX cells in the presence of the bispecific adapters at different concentrations. The number of MDA-CAIX cells was determined at the end of the co-culture, and the percentage of cell lysis was calculated using the following formula: [(number of untreated cells−number of treated cells)/number of untreated cells]*100%.
Anti-FITC CAR T cells were incubated with an equal number of MDA-CAIX cells in the presence of the bispecific adapters at different concentrations. The number of MDA-CAIX cells were determined at the end of the co-culture and the percentage of cell lysis was calculated using the following formula: [(number of untreated cells−number of treated cells)/number of untreated cells]*100%.

Series [7] concerns anti-FITC CAR-T cells co-cultured with MDA-CAIX cells. Put plainly: Bispecific adapter mediated IFNγ release from anti-FITC CAR-T cells co-cultured with MDA-CAIX cells (ELISA). Type of series: cell-based. The following applies: adapter concentration between 0.001 nM and 1 nM; MDA-CAIX co-culture; FIGS. 4B, 5B. How it is done: as §4
Secretion of interferon gamma (IFNγ) from anti-FITC CAR-T cells was analyzed by enzyme-linked immunosorbent assay (ELISA) using the supernatants of the co-cultured medium at the end of the co-culture.
Secretion of IFNγ from anti-FITC CAR T cells was analyzed by ELISA using the supernatants of the co-cultured medium at the end of the co-culture.
Secretion of IFNγ from anti-FITC CAR T cells was analyzed by ELISA using the supernatants of the co-cultured medium at the end of the co-culture study.
(In general: In an ELISA, binding on a coated surface is turned into a signal by an enzyme label.)

The test system of series [8] is HT29 tumor cells. Put plainly: Retention and surface exposure of CAIX bispecific adapters in HT29 tumor cells from injected mice. In kind it is in vivo, mouse. The following applies: 500 nmol/kg, 24 hours after injection, APC-anti-FITC staining; FIG. 8C. How it is done: HT29 tumor bearing mice were injected with CAIX bispecific adapters at 500 nmol/kg. After injection (24 hours later), the tumors were dissected and digested into single cells. The total retention of the bispecific adapters was determined by the FITC fluorescence intensity analyzed by flow cytometry. To analyze the FITC exposure of the bispecific adapters on the tumor cell surface, the digested tumor cells were stained with APC-anti-FITC antibody on ice for 30 minutes. After washing away unbound antibody, the fluorescent intensity of APC was analyzed by flow cytometry.

Series [9] can be described thus: Body weight change of mice in HT29 tumor model. Type of series: in vivo, mouse. To be noted: HT29 tumor-bearing NSG mice treated with anti-FITC CAR-T cells plus adapter; FIG. 7C. How it is done: as §3
Series [10] concerns T cells. Put plainly: T cell counts in the blood and HT29 tumors from mice at end of treatments. Also noted: species or system mouse. To be noted: end of HT29 in vivo study. The procedure: At the end of the in vivo study on HT29 solid tumor model described in FIGS. 7A-7C, blood was collected from the mice, and the red blood cells in the blood were lysed by using red blood cell lysis buffer (BioLegend, San Diego, CA). The remaining cells were stained with anti-human CD3 antibody on ice for 30 minutes. The number of T cells was analyzed by flow cytometry. To analyze tumor-infiltrated T cells, tumors were dissected and digested to single cells. The digested cells were stained with Zombie Violet cell viability staining dye (BioLegend. San Diego, CA) and anti-human CD3 antibody. The percentage of CD3 T cells in total live cells was analyzed by flow cytometry.

The test system of series [11] is anti-FITC CAR-T cells co-cultured with HT29 cells. Put plainly: Bispecific adapter mediated anti-FITC CAR-T cell IFNγ release when co-cultured with HT29 cells (ELISA). In kind it is cell-based. The following applies: HT29 cells at 1:5 ratio, 40 hours. The procedure: Anti-FITC CAR-T cells were incubated with HT29 cells at 1:5 ratio in the presence of the bispecific adapters at different concentrations for 40 hours. Secretion of IFNγ from anti-FITC CAR-T cells was analyzed by ELISA using the supernatants of the co-cultured medium at the end of the co-culture study.
Anti-FITC CAR T cells were incubated with HT29 cells at 1:5 ratio in the presence of the bispecific adapters at different concentrations for 40 hours. Secretion of IFNγ from anti-FITC CAR T cells was analyzed by ELISA using the supernatants of the co-cultured medium at the end of the co-culture study.

A short description of series [12]: Body weight change of mice in KB tumor model. In kind it is in vivo, mouse. To be noted: KB tumor-bearing NSG mice; FIG. 16C. The procedure:
KB cells (1 million) were implanted into each NSG mouse by subcutaneous injection. When the tumor volumes reached about 50 mm^3, the treatment groups were injected with 10 million anti-FITC CAR-T cells and indicated bispecific adapters as shown in FIG. 16A. The tumor volume and body weight were monitored regularly. Tumor volume was calculated using the formula: (length*width^2)/2.

[13] abbreviates: low concentrations (between 0.001 nM and 0.1 nM), FIG. 5A.

Entries after “also recorded” stand apart in the source; their conditions may differ.

For the molecule `NS(=O)(=O)c1nnc(NC(=O)CCCCCCCNC(=S)Nc2ccc(-c3c4ccc(=O)cc-4oc4cc(O)ccc34)c(C(=O)O)c2)s1` [Aza-FITC], the “total binding to HT29 cells (MFI of FITC)” value in [1] is on record as “better total binding to HT29 cells than the other adapters”. For the same molecule, in [2], the “total binding to MDA-CAIX cells (MFI of FITC)” value is “better total binding to MDA-CAIX cells”. For the same molecule, the “growth of HT29 tumor (tumor volume)” value in series [3] is listed as “slightly inhibited the growth of HT29 tumor”. For the same molecule, the “CAIX levels of tumor cells (MFI of FITC after staining with 100 nM meta-CAL-PEG6-FITC in vitro)” value in series [4] was “slightly higher CAIX levels than tumors treated with meta-CAL-FITC with PEG3 or PEG6”.
Consider `NS(=O)(=O)c1c(F)c(F)c(S(=O)(=O)CCC(=O)NCCOCCOCCOCCNC(=S)Nc2ccc(-c3c4ccc(=O)cc-4oc4cc(O)ccc34)c(C(=O)O)c2)c(NC2CCCCCCC2)c1F` [meta-CAL-PEG3-FITC], for which the “total binding to HT29 cells (MFI of FITC)” value in [1] is given as “better total binding to HT29 cells than the other adapters”. Also, the “growth of HT29 tumor (tumor volume)” value in series [3] is recorded as “slightly inhibited the growth of HT29 tumor”. In series [5], the “growth of MDA-CAIX tumors (tumor volume)” value is on record as “slightly inhibited the growth of MDA-CAIX tumors”.
Turning to `NS(=O)(=O)c1c(F)c(F)c(S(=O)(=O)CCC(=O)NCCOCCOCCOCCOCCOCCOCCNC(=S)Nc2ccc(-c3c4ccc(=O)cc-4oc4cc(O)ccc34)c(C(=O)O)c2)c(NC2CCCCCCC2)c1F` [meta-CAL-PEG6-FITC], the “efficacy of anti-FITC CAR-T cell cytotoxicity, lysis (%)” value in series [6] (adapter between 0.001 nM and 10 nM, equal number of CAR-T and MDA-CAIX cells, FIG. 4A) was “higher than ortho-CAL-PEG6-FITC and Aza-FITC”; in series [6] (setting [13]), “higher efficacy than meta-CAL-PEG3-FITC”. Besides, the “IFNγ release from anti-FITC CAR-T cells” value in series [7] is “higher level of IFNγ release from anti-FITC CAR-T cells than ortho-CAL-PEG6-FITC and Aza-FITC; also recorded: higher levels of IFNγ release from anti-FITC CAR-T cells than meta-CAL-PEG3-FITC”. The “surface retention and FITC exposure in HT29 tumors (MFI of APC-anti-FITC)” value in [8] is “better FITC exposure than meta-CAL-PEG3-FITC”. Moreover, the “surface retention and FITC exposure in MDA-CAIX tumors (MFI of APC-anti-FITC)” value in [4] (24 hours after last injection at 500 nmol/kg, FIG. 11D) is “slightly better surface retention and FITC exposure than the other compounds”.
With `NS(=O)(=O)c1c(F)c(F)c(S(=O)(=O)CCC(=O)NCCOCCOCCOCCOCCOCCOCCOCCOCCOCCNC(=S)Nc2ccc(-c3c4ccc(=O)cc-4oc4cc(O)ccc34)c(C(=O)O)c2)c(NC2CCCCCCC2)c1F` [meta-CAL-PEG9-FITC], in series [6] (setting [13]), the “efficacy of anti-FITC CAR-T cell cytotoxicity, lysis (%)” value was “higher efficacy than meta-CAL-PEG3-FITC”. Moreover, the “IFNγ release from anti-FITC CAR-T cells” value in [7] is “higher levels of IFNγ release from anti-FITC CAR-T cells than meta-CAL-PEG3-FITC”. Besides, the “growth of HT29 tumor (tumor volume)” value in series [3] is recorded as “significantly inhibited the growth of HT29 tumor”. Moreover, in [9], the body weight change result was “lost body weight”. For the same molecule, the “surface retention and FITC exposure in HT29 tumors (MFI of APC-anti-FITC)” value in series [8] is given as “better FITC exposure than meta-CAL-PEG3-FITC”. Besides, in series [10] (anti-human CD3 staining, FIG. 9A), the “T cell counts in blood” value was “more T cells than the blood from other treatment groups”. In series [10] (digested tumors, FIG. 9B), the “tumor-infiltrated T cells (CD3+ T cells/live cells)” value was “more tumor-infiltrated T cells”. The “IFNγ released from anti-FITC CAR-T cells” value in series [11] (low concentrations (<0.1 nM), FIG. 15) is on record as “highest level of IFNγ released from anti-FITC CAR-T cells”.
In the case of `NS(=O)(=O)c1c(F)c(F)c(SCCC(=O)NCCOCCOCCOCCOCCOCCOCCNC(=S)Nc2ccc(-c3c4ccc(=O)cc-4oc4cc(O)ccc34)c(C(=O)O)c2)c(F)c1NC1CCCCCCC1` [ortho-CAL-PEG6-FITC], the “growth of MDA-CAIX tumors (tumor volume)” value in [5] was “significantly inhibited the growth of MDA-CAIX tumors”. The “staining of anti-FITC antibody (MFI of APC-anti-FITC after staining with 100 nM meta-CAL-PEG6-FITC in vitro)” value in [4] (MDA-CAIX tumor cells from treated mice, FIG. 11E) is reported as “almost no staining of anti-FITC antibody”. Moreover, the “CAIX levels of tumor cells (MFI of FITC after staining with 100 nM meta-CAL-PEG6-FITC in vitro)” value in [4] is reported as “complete eradication of CAIX^+ tumor cells by CAR T cells”. Moreover, the “IFNγ released from anti-FITC CAR-T cells” value in series [11] (ELISA, FIGS. 14, 15) is “lower levels of IFNγ released from anti-FITC CAR-T cells”. Further, in [12], the body weight change entry is recorded as “did not induce significant body weight loss; also recorded: didn't induce significant body weight loss”.

The values are drawn from US20260263643A1, “BI-SPECIFIC ADAPTERS AND THEIR USE WITH UNIVERSAL CAR-T CELLS IN THE TREATMENT OF CAIX-EXPRESSING TUMORS” (Purdue Research Foundation, priority 2023, published 2026).
